Earlier results on eight molecules are cited in patent US20130344141A1, “CONCENTRATION AND MENTAL PERFORMANCE AMPLIFYING FORMULATION” (priority 2009, published 2013).

Where two headings read alike, the source gives them in different places.

The conditions of data set [1]: in vivo.
For data set [2] the following is noted: taken orally.
For data set [3] the following is noted: in vivo, po.
A further data set deals with neuroblastoma cells. The following applies: in vitro.
In data set [4] the test system is cerebral cortex N-methyl-D-aspartate (NMDA) receptor.
The subject of another data set is neurons. The following applies: by blocking glutamate-induced neuronal calcium influx and cell death.
The conditions of data set [5]: in vivo. This is another data set of the same source.
The conditions of data set [6]: majority metabolized peripherally.
In data set [7] the test system is fungal microorganisms that cause onychomycosis. The following applies: Trichophyton rubrum, T. mentagrophytes, Microsporum canis, Epidermophyton floccosum, E. stockdale.

By bioavailability is commonly meant the share of a dose that reaches the circulation, judged against a reference dose that is usually intravenous. For the molecule `CCOC(=O)C1=C[C@]2(CC)CCCN3CCc4c(n1c1ccccc41)[C@@H]32` [vinpocetine, Eburnamenine-14-carboxylic acid; Ethyl Ester], in data set [1], the bioavailability is given as 7-57% and the “effect of food on absorption” value is “food significantly enhances absorption”. In addition, the drug-induced platelet aggregation result with platelet aggregation is reported as “inhibits”.
`CN1CCCC1c1cccnc1` (stereo not shown) [nicotine, Nicotine]: for the setting “in the body”, the elimination half-life result is recorded as “around two”. Further, the blood-brain barrier passage result (in vivo) is “crosses the blood-brain barrier”.
“1,2-diacyl-:ussn:ueglycero-3-phosphocholine [phosphatidylcholine]”: in [2], the “time to maximum serum concentrations” value is 8 to 12 h.
For `Cn1c(=O)c2c(ncn2C)n(C)c1=O` [caffeine, 1,3,7-trimethylxanthine], the bioavailability in data set [3] is listed as 100%.
Regarding `OC[C@H]1O[C@@H](OCCc2ccc(O)cc2)[C@H](O)[C@@H](O)[C@@H]1O` [salidroside], the “apoptosis of neuroblastoma cells exposed to hydrogen peroxide” value in the data set on neuroblastoma cells is on record as “decreases apoptosis”.
Consider `C/C=C1\[C@H]2C=C(C)C[C@]1(N)c1ccc(=O)[nH]c1C2` [huperzine A, Huperzine A], for which the “acetylcholine elevation, frontal cortex” value in the data set on acetylcholine (maximal value, frontal cortex) was 125%. Also, the “acetylcholine elevation, parietal cortex” value in the data set with acetylcholine (maximal value, parietal cortex) was 105%. The “acetylcholine elevation, other brain regions” value in the data set on acetylcholine (other brain regions) is on record as 22-65%. In [4], the “affinity as NMDA receptor antagonist” value was “low affinity”. Also, the “protection of neurons against toxic levels of glutamate” value in the data set with neurons is on record as “protects neurons”. The blood-brain barrier passage entry in data set [5] is “crosses the blood-brain barrier”.
Consider `N[C@@H](Cc1ccc(O)c(O)c1)C(=O)O` [L-dopa, levodopa], for which the “share that reaches the brain” value in [6] is listed as “less than 1%”.
As to `CC1CCC(C(C)C)C(O)C1` (stereo not shown) [menthol], in data set [7], the “activity against fungal microorganisms that cause onychomycosis” value is “active”.
